Laboratory results as given in patent publication US7271160B2, “Methods and compositions for degradation and/or inhibition of HER-family tyrosine kinases” (Sloan-Kettering Institute for Cancer Research, priority 1999, dated 2007).
“Also recorded” adds a separate entry of the source.

What was measured:
[1] = tested on: MCF-7 cells; experiment: MCF-7 cell growth inhibition (cell counting); format: cell-based; settings: Homo sapiens, MCF7, 96 h; MCF-7 cells treated for four days; 50% growth inhibition vs vehicle; average of three experiments; read-out: IC50 (growth inh.)
Procedure: (§1) The human breast cancer cell lines MCF-7 and SKBR-3 were obtained from ATCC (Rockville, Md.), and maintained in DME/F12 (1:1) supplemented with 10% heat-inactivated fetal bovine serum (Gemini Bioproducts), 2 mM glutamine, and 50 units/ml each of penicillin and streptomycin, in a humidified 5% CO2/air atmosphere at 37° C.
For cell growth experiments, cells were plated in 6-well tissue-culture plates (Corning) at 20,000 cells/well. Two days after plating, cells were treated with different concentrations of drugs or the vehicle DMSO (0.1%). MCF-7 cells were treated for four days; medium with the appropriate drug or vehicle was changed every 2 days; cells were trypsinized, collected and counted on a Coulter counter; IC50 for cell growth is designated as the amount of each drug needed to inhibit MCF-7 growth by 50% compared to the control vehicle.

[2] = tested on: HER2; experiment: Induction of HER2 degradation in MCF-7 cells (immunoblotting); format: cell-based, human; settings: for IC50: 24-hr treatment, amount of drug needed to degrade 50% of the protein vs control, average of three experiments, read-out: IC50 (HER-2); for specificity/selectivity for HER-2 over Raf-1: compared to GM
Procedure: (§2) After exposure, cells were washed twice with ice-cold phosphate-buffered saline (PBS), collected by scraping and transferred into microcentrifuge tubes. For immunoblotting (HER2, Raf-1, ER), cells were lysed with SDS lysis buffer (50 mM Tris-HCl, pH 7.5, 2% SDS, 10% glycerol, and 1 mM DTT), boiled for 10 min, and sonicated briefly; for immanoprecipitation (IGF-IR), cells were lysed with NP40 lysis buffer (50 mM Tris-HCl, pH 7.5, 1% Nonidet P-40, 150 mM NaCl, 1 mM Na3VO4, 40 mM NaF, 1 mM phenylmethylsulfonyl fluoride (PMSF) and 10 μg/ml each of aprotinin, leupeptin and soybean trypsin inhibitor) for 20 min at 4° C. Cell lysates were cleared by centrifuging at 14,000×g for 15 min at 4° C. in a microcentrifuge; the supernatants were collected as the experimental samples. Protein concentration in each sample was determined using the BCA kit (Pierce) according to the manufacture's instructions. For detecting IGF-IR, samples were immunoprecipitated with anti-IGF-IR antibody. Immunocomplexes were collected on protein A-Sepharose beads (Pharmacia), washed three tires with the lysis buffer. Samples were subjected to SDS-PAGE, electrotransferred to nitrocellulose membranes, detected using the ECL kit (Amersham) according to the manufacturer's protocol, and quantitated using the Gel Doc 1000 (Bio-Rad).
(§3) Numerical results for IC50 for HER-2, Raf-1 and cell growth are summarized in Table 1, with each number representing the average of three different experiments.

[3] = tested on: Raf-1; experiment: Induction of Raf-1 degradation in MCF-7 cells (immunoblotting); format: cell-based, human; settings: for IC50: 24-hr treatment, amount of drug needed to degrade 50% of the protein vs control, average of three experiments
Procedure: as §2, §3

[4] = tested on: estrogen receptor; experiment: Estrogen receptor level in MCF-7 cells (immunoblotting time course); format: cell-based, human; settings: 1 μM, 3 to 24 hours
[5] = tested on: HER-2 and Raf-1; experiment: Varying concentration and treatment pattern, HER-2 and Raf-1 levels (Example 3); format: cell-based
[6] = tested on: HER2; experiment: Immunofluorescence of HER2 in MCF-7 cells; format: cell-based, human; settings: vs DMSO control
Procedure: (§4) MCF-7 cells were grown and treated on fibronectin-coated coverslips placed in multiwell plates. Cells were fixed for 20 min at −20° C. in 100% methanol, rehydrated in PBS for 10 min at room temperature and blocked for 30 min at 37° C. in a blocking solution consisting of 2% bovine serum albumin (BSA), 10% normal goat serum and 0.05% Tween-20 in PBS. HER2 and Raf-1 were immunodetected with antibodies from Santa Cruz (SC284 and SC133, respectively); IGF-IR, an antibody from Calbiochem Oncogene Science (Abl). Slides were incubated with a […] of the primary antibody in blocking buffer for 1 hr at room temperature, followed by an incubation with Alexa 546-coupled goat anti-rabbit lgG secondary antibody (A-11010, Molecular Probes) at a […] in blocking buffer, or fluoresceine isothiocyanate-coupled goat anti-mouse IgG (F276, Molecular Probes) at a […]. […] DNA was stained with bisbenzimide, which was included in the secondary antibody solution (3 μg/ml final concentration. Coverslips were mounted on glass slides using Vectashield (Vector), to prevent quenching of fluorescence. Immunofluorescence was detected with a Zeiss epifluorescence microscope, at 40× and 100×, using appropriate filters for detection of rhodamine and bisbenzimide, and via confocal microscopy.

[7] = tested on: IGF-I receptor; experiment: IGF-I receptor level in MCF-7 cells (immunoprecipitation/immunoblotting time course); format: cell-based, human; settings: 1 μM, 3 to 24 hours
Procedure: as §2, with “For immunoblotting (HER2, Raf-1, ER), cells were lysed with SDS lysis buffer (50 mM Tris-HCl, pH 7.5, 2% SDS, 10% glycerol, and 1 mM DTT), boiled for 10 min, and sonicated briefly; for immanoprecipitation (IGF-IR), cells were lysed with NP40 lysis buffer (50 mM Tris-HCl, pH 7.5, 1% Nonidet P-40, 150 mM NaCl, 1 mM Na3VO4, 40 mM NaF, 1 mM phenylmethylsulfonyl fluoride (PMSF) and 10 μg/ml each of aprotinin, leupeptin and soybean trypsin inhibitor) for 20 min at 4° C.” left out

[8] = tested on: IGF-IR; experiment: Immunofluorescence of IGF-IR in MCF-7 cells; format: cell-based, human; settings: vs DMSO control
Procedure: as §4

[9] = tested on: SKBR3; experiment: SKBR3 breast cancer cell sensitivity; format: cell-based, human; settings: SKBR3, HER2 highly overexpressed
Procedure: as §1

[10] = tested on: 32D cells; experiment: 32D cell growth (HER-kinase negative cells, daily cell counts); format: cell-based, murine; settings: 32D cells lacking HER-kinases; various concentrations, counted daily for three days
Procedure: Murine hematopoietic cell line 32D, which lacks HER-kinases, was kindly provided by Dr Yosef Yarden (The Weizmann Institute of Science, Israel), and maintained in RPMI-1640 supplemented with 10% heat-inactivated FBS, 2 nm interleukin 3 (R&D systems), 2 mM glutamine, and 50 units/ml each of penicillin and streptomycin.

[11] = tested on: Raf-1; experiment: Immunofluorescence of Raf-1 in MCF-7 cells; format: cell-based, human; settings: vs DMSO control
Procedure: as §4

IC50 [1] [nM]	IC50 [2] [nM]	IC50 [3] [µM]	Structure (SMILES)	activity against HER2 (in words) [2]	specificity/selectivity for HER-2 over Raf-1 [2]	activity against Raf-1 (in words) [3]	other results
100	60	3.2	COC1C=CC=C(C)C(=O)NC2=CC(=O)C(NCCCCNC3=C4CC(C)CC(OC)C(O)C(C)C=C(C)C(OC(N)=O)C(OC)C=CC=C(C)C(=O)NC(=CC3=O)C4=O)=C(CC(C)CC(OC)C(O)C(C)C=C(C)C1OC(N)=O)C2=O (stereo not drawn) [GMD-4c]	–	greatest selectivity of the compounds tested	–	Estrogen receptor levels over time [4]: declined transiently but returned to baseline by 24 hours; amount of HER-2 and Raf-1 as a function of the treatment pattern ([5]; 0.25, 0.5 and 1 μM, single or repeated treatments at 0, 3, 6, 12 hours): No significant differences; selectivity on repeated addition ([5]; high concentrations added four times in twelve hours): retained selectivity; anti-HER2 staining (immunofluorescence) [6]: significant reduction in fluorescence levels; IGF-I receptor expression over time [7]: does not affect; HER2 / HER-kinase expression over time ([2]; 1 μM, 3 to 24 hours, Western blot and immunohistochemical analysis): reduces HER2 expression with the same kinetics; anti-IGF-IR staining (immunofluorescence) [8]: only observed for the anti-HER2 antibodies; sensitivity of SKBR3 cells [9]: very sensitive; effect on growth of 32D cells [10]: does not appreciably affect its growth; also recorded: much less so; Raf-1 expression over time ([3]; 1 μM, 3 to 24 hours): does not affect; anti-Raf-1 staining (immunofluorescence) [11]: only observed for the anti-HER2 antibodies
600	70	0.5	COC1C=CC=C(C)C(=O)NC2=CC(=O)C(NCCCCCCCNC3=C4CC(C)CC(OC)C(O)C(C)C=C(C)C(OC(N)=O)C(OC)C=CC=C(C)C(=O)NC(=CC3=O)C4=O)=C(CC(C)CC(OC)C(O)C(C)C=C(C)C1OC(N)=O)C2=O (stereo not drawn) [GMD-7c]	–	–	–	–
> 2000	> 5000	> 5	CC(C)C(C)C [GMD-aa]	inactive	–	inactive	–
700	750	3.5	COC1C=CC=C(C)C(=O)NC2=CC(=O)C(NCCCCCCCCCCCCNC3=C4CC(C)CC(OC)C(O)C(C)C=C(C)C(OC(N)=O)C(OC)C=CC=C(C)C(=O)NC(=CC3=O)C4=O)=C(CC(C)CC(OC)C(O)C(C)C=C(C)C1OC(N)=O)C2=O (stereo not drawn) [twelve carbon-linked compound]	–	–	–	–

Structure (SMILES)	IC50 [1] [nM]	IC50 [2] [nM]	IC50 [3] [µM]	activity against HER2 (in words) [2]	specificity/selectivity for HER-2 over Raf-1 [2]	activity against Raf-1 (in words) [3]	other results
COC1C=CC=C(C)C(=O)NC2=CC(=O)C(NCCCCCCCCCNC3=C4CC(C)CC(OC)C(O)C(C)C=C(C)C(OC(N)=O)C(OC)C=CC=C(C)C(=O)NC(=CC3=O)C4=O)=C(CC(C)CC(OC)C(O)C(C)C=C(C)C1OC(N)=O)C2=O (stereo not drawn)	700	500	3.8	–	–	–	–
COC1C=CC=C(C)C(=O)NC2=CC(=O)C(NCCCCN)=C(CC(C)CC(OC)C(O)C(C)C=C(C)C1OC(N)=O)C2=O (stereo not drawn) [ButylaminoGM]	–	55	–	modestly weaker than GM	not selective	modestly weaker than GM	–
